Where two headings read alike, the source gives them in different places.
Legend:
[1] = test system: NCI-H23 (Non-Small Cell Lung Cancer)
Procedure: (§1) For a typical screening experiment, cells are inoculated into 96 well microtiter plates in 100 μL at plating densities ranging from 5,000 to 40,000 cells/well depending on the doubling time of individual cell lines. After cell inoculation, the microtiter plates are incubated at 37° C., 5% CO2, 95% air and 100% relative humidity for 24 h prior to addition of experimental drugs.
(§2) After 24 h, two plates of each cell line are fixed in situ with TCA, to represent a measurement of the cell population for each cell line at the time of drug addition (Tz). Experimental drugs are solubilized in dimethyl sulfoxide at 400-fold the desired final maximum test concentration and stored frozen prior to use. At the time of drug addition, an aliquot of frozen concentrate is thawed and diluted to twice the desired final maximum test concentration with complete medium containing 50 μg/ml gentamicin. Additional four, 10-fold or ½ log serial dilutions are made to provide a total of five drug concentrations plus control. Aliquots of 100 μl of these different drug dilutions are added to the appropriate microtiter wells already containing 100 μl of medium, resulting in the required final drug concentrations.
(§3) Following drug addition, the plates are incubated for an additional 48 h at 37° C., 5% CO2, 95% air, and 100% relative humidity. For adherent cells, the assay is terminated by the addition of cold TCA. Cells are fixed in situ by the gentle addition of 50 μl of cold 50% (w/v) TCA (final concentration, 10% TCA) and incubated for 60 minutes at 4° C. The supernatant is discarded, and the plates are washed five times with tap water and air dried. Sulforhodamine B (SRB) solution (1001) at 0.4% (w/v) in 1% acetic acid is added to each well, and plates are incubated for 10 minutes at room temperature. After staining, unbound dye is removed by washing five times with 1% acetic acid and the plates are air dried. Bound stain is subsequently solubilized with 10 mM trizma base, and the absorbance is read on an automated plate reader at a wavelength of 515 nm. For suspension cells, the methodology is the same except that the assay is terminated by fixing settled cells at the bottom of the wells by gently adding 50 μl of 80% TCA (final concentration, 16% TCA). Using the seven absorbance measurements [time zero, (Tz), control growth, (C), and test growth in the presence of drug at the five concentration levels (Ti)], the percentage growth is calculated at each of the drug concentrations levels. Percentage growth inhibition is calculated as: [(Ti−Tz)/(C−Tz)]×100 for concentrations for which Ti>/=Tz [(Ti−Tz)/Tz]×100 for concentrations for which Ti<Tz
(§4) Three dose response parameters are calculated for each experimental agent. […] The drug concentration resulting in total growth inhibition (TGI) is calculated from Ti=Tz. […] Values are calculated for each of these three parameters if the level of activity is reached; however, if the effect is not reached or is exceeded, the value for that parameter is expressed as greater or less than the maximum or minimum concentration tested.

[2] = test system: SK-MEL-2 (Melanoma); test: NCI DTP tumor cell line screen (SRB), SK-MEL-2
Procedure: as §1, §2, §3, §4

[3] = test system: A549/ATCC (Non-Small Cell Lung Cancer); test: NCI DTP tumor cell line screen (SRB), A549/ATCC
Procedure: as §1, §2, §3, §4

[4] = test system: UACC-62 (Melanoma); test: NCI DTP tumor cell line screen (SRB), UACC-62
Procedure: as §1, §2, §3, §4

[5] = test system: MDA-MB-435 (Breast Cancer); test: NCI DTP tumor cell line screen (SRB), MDA-MB-435
Procedure: as §1, §2, §3, §4

[6] = test system: HCT-15 (Colon Cancer); test: NCI DTP tumor cell line screen (SRB), HCT-15; conditions: HCT-15
Procedure: as §1, §2, §3, §4

[7] = test system: MDA-MB-231/ATCC (Breast Cancer); test: NCI DTP tumor cell line screen (SRB), MDA-MB-231/ATCC
Procedure: as §1, §2, §3, §4

[8] = test system: OVCAR-8 (Ovarian Cancer); test: NCI DTP tumor cell line screen (SRB), OVCAR-8; conditions: OVCAR-8
Procedure: as §1, §2, §3, §4

[9] = test system: CAKI-1 (Renal Cancer); test: NCI DTP tumor cell line screen (SRB), CAKI-1
Procedure: as §1, §2, §3, §4

[10] = test system: MCF7 (Breast Cancer); test: NCI DTP tumor cell line screen (SRB), MCF7; conditions: MCF7
Procedure: as §1, §2, §3, §4

[11] = test system: SK-MEL-5 (Melanoma); test: NCI DTP tumor cell line screen (SRB), SK-MEL-5
Procedure: as §1, §2, §3, §4

[12] = test system: EKVX (Non-Small Cell Lung Cancer); test: NCI DTP tumor cell line screen (SRB), EKVX
Procedure: as §1, §2, §3, §4

[13] = test system: SR (Leukemia); test: NCI DTP tumor cell line screen (SRB), SR
Procedure: as §1, §2, §3, §4

[14] = test system: COLO 205 (Colon Cancer); test: NCI DTP tumor cell line screen (SRB), COLO 205
Procedure: as §1, §2, §3, §4

[15] = test system: K-562 (Leukemia); test: NCI DTP tumor cell line screen (SRB), K-562
Procedure: as §1, §2, §3, §4

[16] = test system: HOP-62 (Non-Small Cell Lung Cancer); test: NCI DTP tumor cell line screen (SRB), HOP-62
Procedure: as §1, §2, §3, §4

NCC(=O)Nc1ccc(-n2nc(C(F)(F)F)cc2-c2ccc3c(ccc4ccccc43)c2)cc1 [Compound 70, 2-Amino-N-{4-[5-(2-phenanthrenyl)-3-(trifluoromethyl)-1H-pyrazol-1-yl]-phenyl}-acetamide]
TGI [1]: 2.87E−06
Mean Optical Densities ([1]; Log10 Concentration −4.0): 0.156
Mean Optical Densities ([1]; Log10 Concentration −5.0): 0.097
Percent Growth ([1]; Log10 Concentration −5.0): −79%
Mean Optical Densities ([1]; Log10 Concentration −6.0): 1.255
Percent Growth ([1]; Log10 Concentration −6.0): 67%
Mean Optical Densities ([1]; Log10 Concentration −7.0): 1.673
Percent Growth ([1]; Log10 Concentration −7.0): 102%
Mean Optical Densities ([1]; Log10 Concentration −8.0): 1.672
Percent Growth ([1]; Log10 Concentration −8.0): 101%
TGI [2]: 5.40E−06
Mean Optical Densities ([2]; Log10 Concentration −4.0): 0.330
Mean Optical Densities ([2]; Log10 Concentration −5.0): 0.289
Mean Optical Densities ([2]; Log10 Concentration −6.0): 0.885
Percent Growth ([2]; Log10 Concentration −6.0): 100%
Mean Optical Densities ([2]; Log10 Concentration −7.0): 0.956
Percent Growth ([2]; Log10 Concentration −7.0): 117%
Mean Optical Densities ([2]; Log10 Concentration −8.0): 0.943
Percent Growth ([2]; Log10 Concentration −8.0): 114%
TGI [3]: 2.96E−06
Mean Optical Densities ([3]; Log10 Concentration −4.0): 0.252
Mean Optical Densities ([3]; Log10 Concentration −5.0): 0.155
Percent Growth ([3]; Log10 Concentration −5.0): −57%
Mean Optical Densities ([3]; Log10 Concentration −6.0): 0.831
Percent Growth ([3]; Log10 Concentration −6.0): 51%
Mean Optical Densities ([3]; Log10 Concentration −7.0): 1.149
Percent Growth ([3]; Log10 Concentration −7.0): 86%
Mean Optical Densities ([3]; Log10 Concentration −8.0): 1.294
Percent Growth ([3]; Log10 Concentration −8.0): 102%
TGI [4]: 3.15E−06
Mean Optical Densities ([4]; Log10 Concentration −4.0): 0.364
Mean Optical Densities ([4]; Log10 Concentration −5.0): 0.137
Percent Growth ([4]; Log10 Concentration −5.0): −80%
Mean Optical Densities ([4]; Log10 Concentration −6.0): 1.407
Percent Growth ([4]; Log10 Concentration −6.0): 79%
Mean Optical Densities ([4]; Log10 Concentration −7.0): 1.546
Percent Growth ([4]; Log10 Concentration −7.0): 94%
Mean Optical Densities ([4]; Log10 Concentration −8.0): 1.649
Percent Growth ([4]; Log10 Concentration −8.0): 105%
TGI [5]: 3.14E−06
Mean Optical Densities ([5]; Log10 Concentration −4.0): 0.347
Mean Optical Densities ([5]; Log10 Concentration −5.0): 0.127
Percent Growth ([5]; Log10 Concentration −5.0): −69%
Mean Optical Densities ([5]; Log10 Concentration −6.0): 1.126
Percent Growth ([5]; Log10 Concentration −6.0): 68%
Mean Optical Densities ([5]; Log10 Concentration −7.0): 1.447
Percent Growth ([5]; Log10 Concentration −7.0): 98%
Mean Optical Densities ([5]; Log10 Concentration −8.0): 1.502
Percent Growth ([5]; Log10 Concentration −8.0): 103%
TGI [6]: 3.19E−06
Mean Optical Densities ([6]; Log10 Concentration −5.0): 0.149
Percent Growth ([6]; Log10 Concentration −5.0): −47%
Mean Optical Densities ([6]; Log10 Concentration −6.0): 0.561
Percent Growth ([6]; Log10 Concentration −6.0): 47%
Mean Optical Densities ([6]; Log10 Concentration −7.0): 0.599
Percent Growth ([6]; Log10 Concentration −7.0): 54%
Mean Optical Densities ([6]; Log10 Concentration −8.0): 0.760
Percent Growth ([6]; Log10 Concentration −8.0): 81%
TGI [7]: 2.77E−06
Mean Optical Densities ([7]; Log10 Concentration −4.0): 0.306
Mean Optical Densities ([7]; Log10 Concentration −5.0): 0.173
Percent Growth ([7]; Log10 Concentration −5.0): −73%
Mean Optical Densities ([7]; Log10 Concentration −6.0): 0.843
Percent Growth ([7]; Log10 Concentration −6.0): 58%
Mean Optical Densities ([7]; Log10 Concentration −7.0): 0.889
Percent Growth ([7]; Log10 Concentration −7.0): 71%
Mean Optical Densities ([7]; Log10 Concentration −8.0): 0.988
Percent Growth ([7]; Log10 Concentration −8.0): 100%
TGI [8]: 4.05E−06
Mean Optical Densities ([8]; Log10 Concentration −4.0): 0.306
Mean Optical Densities ([8]; Log10 Concentration −5.0): 0.269
Percent Growth ([8]; Log10 Concentration −5.0): −33%
Mean Optical Densities ([8]; Log10 Concentration −6.0): 0.755
Percent Growth ([8]; Log10 Concentration −6.0): 51%
Mean Optical Densities ([8]; Log10 Concentration −7.0): 1.114
Percent Growth ([8]; Log10 Concentration −7.0): 102%
Mean Optical Densities ([8]; Log10 Concentration −8.0): 1.078
Percent Growth ([8]; Log10 Concentration −8.0): 97%
TGI [9]: 2.27E−06
Mean Optical Densities ([9]; Log10 Concentration −4.0): 0.335
Mean Optical Densities ([9]; Log10 Concentration −5.0): 0.147
Percent Growth ([9]; Log10 Concentration −5.0): −75%
Mean Optical Densities ([9]; Log10 Concentration −6.0): 1.126
Percent Growth ([9]; Log10 Concentration −6.0): 42%
Mean Optical Densities ([9]; Log10 Concentration −7.0): 1.802
Percent Growth ([9]; Log10 Concentration −7.0): 95%
Mean Optical Densities ([9]; Log10 Concentration −8.0): 1.692
Percent Growth ([9]; Log10 Concentration −8.0): 87%
TGI [10]: 2.72E−06
Mean Optical Densities ([10]; Log10 Concentration −4.0): 0.255
Mean Optical Densities ([10]; Log10 Concentration −5.0): 0.196
Mean Optical Densities ([10]; Log10 Concentration −6.0): 0.982
Mean Optical Densities ([10]; Log10 Concentration −7.0): 1.541
Mean Optical Densities ([10]; Log10 Concentration −8.0): 1.566
TGI [11]: 3.02E−06
Mean Optical Densities ([11]; Log10 Concentration −4.0): 0.364
Mean Optical Densities ([11]; Log10 Concentration −5.0): 0.136
Percent Growth ([11]; Log10 Concentration −5.0): −75%
Mean Optical Densities ([11]; Log10 Concentration −6.0): 1.659
Percent Growth ([11]; Log10 Concentration −6.0): 69%
Mean Optical Densities ([11]; Log10 Concentration −7.0): 1.958
Percent Growth ([11]; Log10 Concentration −7.0): 88%
Mean Optical Densities ([11]; Log10 Concentration −8.0): 1.995
Percent Growth ([11]; Log10 Concentration −8.0): 91%
TGI [12]: 3.25E−06
Mean Optical Densities ([12]; Log10 Concentration −4.0): 0.193
Mean Optical Densities ([12]; Log10 Concentration −5.0): 0.156
Percent Growth ([12]; Log10 Concentration −5.0): −72%
Mean Optical Densities ([12]; Log10 Concentration −6.0): 0.786
Percent Growth ([12]; Log10 Concentration −6.0): 75%
Mean Optical Densities ([12]; Log10 Concentration −7.0): 0.860
Percent Growth ([12]; Log10 Concentration −7.0): 100%
Mean Optical Densities ([12]; Log10 Concentration −8.0): 0.891
Percent Growth ([12]; Log10 Concentration −8.0): 110%
TGI [13]: 4.17E−06
Mean Optical Densities ([13]; Log10 Concentration −4.0): 0.363
Mean Optical Densities ([13]; Log10 Concentration −5.0): 0.265
Percent Growth ([13]; Log10 Concentration −5.0): −27%
Mean Optical Densities ([13]; Log10 Concentration −6.0): 0.605
Percent Growth ([13]; Log10 Concentration −6.0): 45%
Mean Optical Densities ([13]; Log10 Concentration −7.0): 0.796
Percent Growth ([13]; Log10 Concentration −7.0): 80%
Mean Optical Densities ([13]; Log10 Concentration −8.0): 0.816
Percent Growth ([13]; Log10 Concentration −8.0): 84%
Mean Optical Densities ([14]; Log10 Concentration −4.0): 0.239
Mean Optical Densities ([14]; Log10 Concentration −5.0): 0.104
Percent Growth ([14]; Log10 Concentration −5.0): −53%
Mean Optical Densities ([14]; Log10 Concentration −6.0): 0.916
Percent Growth ([14]; Log10 Concentration −6.0): 58%
Mean Optical Densities ([14]; Log10 Concentration −7.0): 1.252
Percent Growth ([14]; Log10 Concentration −7.0): 87%
Mean Optical Densities ([14]; Log10 Concentration −8.0): 1.286
Percent Growth ([14]; Log10 Concentration −8.0): 89%
TGI [15]: 3.34E−06
Mean Optical Densities ([15]; Log10 Concentration −4.0): 0.247
Mean Optical Densities ([15]; Log10 Concentration −5.0): 0.209
Percent Growth ([15]; Log10 Concentration −5.0): −30%
Mean Optical Densities ([15]; Log10 Concentration −6.0): 0.681
Percent Growth ([15]; Log10 Concentration −6.0): 33%
Mean Optical Densities ([15]; Log10 Concentration −7.0): 1.022
Percent Growth ([15]; Log10 Concentration −7.0): 62%
Mean Optical Densities ([15]; Log10 Concentration −8.0): 1.435
Percent Growth ([15]; Log10 Concentration −8.0): 97%
TGI [16]: 3.01E−06
Mean Optical Densities ([16]; Log10 Concentration −4.0): 0.217
Mean Optical Densities ([16]; Log10 Concentration −5.0): 0.155
Percent Growth ([16]; Log10 Concentration −5.0): −70%
Mean Optical Densities ([16]; Log10 Concentration −6.0): 1.075
Percent Growth ([16]; Log10 Concentration −6.0): 64%
Mean Optical Densities ([16]; Log10 Concentration −7.0): 1.330
Percent Growth ([16]; Log10 Concentration −7.0): 93%
Mean Optical Densities ([16]; Log10 Concentration −8.0): 1.310
Percent Growth ([16]; Log10 Concentration −8.0): 90%

Source: US8741944B2, “Anti-infective agents against intracellular pathogens” (priority 2007, dated 2014)
